# Source: article PMC5025651, “Reprofiled anthelmintics abate hypervirulent stationary-phase Clostridium difficile” (Scientific Reports, 2016)
# Structures can show the parent of a compound that is named as a salt. Where two headings read alike, the source gives them in different places.
# Experiments:
# [1] = system: B. fragilis Strain CL05T00C42; assay: MIC by broth microdilution; type: cell-based; settings: Bacteroides fragilis
# P. nigrescens ATCC 33563 = assay: MIC by broth microdilution; type: cell-based; settings: Prevotella nigrescens, ATCC33563
# B. subtilis ATCC 6051 = assay: MIC by broth microdilution; type: cell-based; settings: Bacillus subtilis, ATCC6051
# S. aureus RN4220 = assay: MIC by broth microdilution; type: cell-based; settings: Staphylococcus aureus, CAMHB, aerobic, duplicate
# [2] = system: B. longum subsp. longum Strain 44B; assay: MIC by broth microdilution; type: cell-based; settings: Bifidobacterium longum
# [3] = system: L. johnsonii Strain 135-1-CHN; assay: MIC by broth microdilution; type: cell-based; settings: Lactobacillus johnsonii, STRAIN1351CHN
# P. distasonis ATCC 8503 = assay: MIC by broth microdilution; type: cell-based; settings: Parabacteroides distasonis, ATCC8503
# [4] = system: C. difficile isolate 20100584 (ribotype 014); assay: MIC by broth microdilution; type: cell-based, Clostridium difficile; settings: Clostridioides difficile
# Hemolysis assay = type: cell-based; settings: sheep, pH 7.4; 32 µg/mL, 1 h, 37 °C; 1% Triton X-100 positive control; triplicate; read-out: Hemolysis (%)
# Method: Sheep red blood cells (Innovative Research, Novi, MI, USA) were washed three times with PBS pH 7.4. A 3% cell suspension in PBS (100 μL) was added to test compounds in PBS (100 μL, to a final concentration of 32 μg/mL), and then incubated at 37 °C for 1 h. The plate was centrifuged at 500 × g for 10 min, and supernatants (100 μL) were transferred to a clean 96-well plate. Hemolysis was determined by measuring absorbance at 540 nm, with 1% Triton X-100 as the positive control and 0.5% DMSO in PBS as the negative control. Hemolysis assays were performed in triplicate.
# [5] = system: C. difficile strain 4118 (CD4118, ATCC BAA-1870, ribotype 027); assay: MIC by broth microdilution; type: cell-based, Clostridium difficile; settings: for MIC: Clostridioides difficile
# [6] = system: C. difficile isolate 20120016 (ribotype 019); assay: MIC by broth microdilution; type: cell-based, Clostridium difficile; settings: Clostridioides difficile
# [7] = system: B. thetaiotaomicron ATCC 29148; assay: microbe, parasite or virus in culture; type: cell-based; settings: Bacteroides thetaiotaomicron, ATCC29148
# [8] = system: L. reuteri Strain CF48-3A; assay: MIC by broth microdilution; type: cell-based, Lactobacillus reuteri; settings: Limosilactobacillus reuteri
# S. epidermidis 1457 = assay: MIC by broth microdilution; type: cell-based; settings: Staphylococcus epidermidis
# [9] = system: C. difficile isolate 20110740 (ribotype 018); assay: MIC by broth microdilution; type: cell-based, Clostridium difficile; settings: Clostridioides difficile
# [10] = system: C. difficile isolate 20110973 (ribotype 106); assay: MIC by broth microdilution; type: cell-based, Clostridium difficile; settings: Clostridioides difficile
# [11] = system: C. difficile isolate 20110986 (ribotype 078); assay: MIC by broth microdilution; type: cell-based, Clostridium difficile; settings: Clostridioides difficile
# [12] = system: C. difficile isolate 20110960 (ribotype 017); assay: MIC by broth microdilution; type: cell-based, Clostridium difficile; settings: Clostridioides difficile
# [13] = system: C. difficile isolate 20100422 (ribotype 054); assay: MIC by broth microdilution; type: cell-based, Clostridium difficile; settings: Clostridioides difficile
# [14] = system: C. difficile isolate 20121190 (ribotype 126); assay: MIC by broth microdilution; type: cell-based, Clostridium difficile; settings: Clostridioides difficile
# [15] = system: C. difficile isolate 20110869 (ribotype 001_072); assay: MIC by broth microdilution; type: cell-based, Clostridium difficile; settings: Clostridioides difficile
# A. baumannii M2 = assay: MIC by broth microdilution; type: cell-based; settings: Acinetobacter baumannii
# [16] = system: C. difficile isolate 20110961 (ribotype A12); assay: MIC by broth microdilution; type: cell-based, Clostridium difficile; settings: Clostridioides difficile
# C. difficile strain 4118 [17] = assay: Minimum bactericidal concentration (MBC), logarithmic- and stationary-phase cells; type: cell-based, Clostridium difficile
# Method: The procedure for MBC determination was adapted from that of Alam et al.[44]. Briefly, a single overnight colony of C. difficile strain 4118 (streaked onto blood agar plate) was suspended in BHIS and grown to OD600 ~ 0.4–0.5 (logarithmic phase) or for 24 h (stationary phase). In 96-well microtiter plates, cultures were added to two-fold serial dilutions of test compounds in BHIS and incubated for 20–24 h at 37 °C in an anaerobic chamber. […] MBC measurements were performed in duplicate.
# 16 C. difficile isolates = assay: MIC by broth microdilution, summary over 16 C. difficile isolates; type: cell-based, Clostridium difficile; settings: for MIC50 / MIC90: Clostridioides difficile; for MIC Range: range over 16 C. difficile isolates
# [18] = system: C. difficile isolate 20111163 (ribotype 024); assay: MIC by broth microdilution; type: cell-based, Clostridium difficile; settings: Clostridioides difficile
# [19] = system: C. difficile isolate 20110742 (ribotype 002); assay: MIC by broth microdilution; type: cell-based, Clostridium difficile; settings: Clostridioides difficile
# [20] = system: C. difficile isolate 20110566 (ribotype 020); assay: MIC by broth microdilution; type: cell-based, Clostridium difficile; settings: Clostridioides difficile
# C. difficile strain 4118 [21] = assay: Time-kill kinetics against stationary-phase cultures; type: cell-based, Clostridium difficile
# Method: At t = 0, 3, 6 and 24 h, sample aliquots were withdrawn from the treated cultures and bacterial viability was scored by plating serial dilutions on BHIS agar plates. The agar plates were incubated in the anaerobic chamber for 20–24 h at 37 °C. Kinetic experiments were performed at least twice.
# [22] = system: B. breve Strain EX336960VC19; assay: MIC by broth microdilution; type: cell-based; settings: Bifidobacterium breve
# [23] = system: C. clostridioforme ATCC 25537; assay: MIC by broth microdilution; type: cell-based, Clostridium clostridioforme; settings: Clostridium, ATCC25537
# [24] = BHIS broth, anaerobic, 20–24 h, n = 2
# [25] = Clostridioides difficile, 4118, read-out: MBClog
# [26] = Clostridioides difficile, 4118, read-out: MBCstat
structure (smiles),measurement,setting,value
"O=C(Nc1ccc(Oc2ccc(Cl)cc2)c(Cl)c1)c1cc(I)cc(I)c1O [Rafoxanide, rafoxanide]",MIC,[1],32 µg/mL
same,MIC,P. nigrescens ATCC 33563,8 µg/mL
same,MIC,B. subtilis ATCC 6051,≤ 0.03 µg/mL
same,MIC,S. aureus RN4220,0.25 µg/mL
same,MIC,[2],8 µg/mL
same,MIC,[3]; 48 h,32 µg/mL
same,MIC,P. distasonis ATCC 8503,8 µg/mL
same,MIC,[4],0.06 µg/mL
same,"hemolysis at 1 h, 32 µg/mL",Hemolysis assay,< 1%
same,MIC C. difficile 4118,[5]; [24],0.13 µg/mL
same,MIC,"[5]; ATCCBAA1870, read-out: MIC C. difficile 4118",0.13 µg/mL
same,MIC,[6],0.13 µg/mL
same,MIC,[7],> 32 µg/mL
same,MIC,[8]; 48 h,16 µg/mL
same,MIC,S. epidermidis 1457; 1457,≤ 0.03 µg/mL
same,MIC,[9],0.06 µg/mL
same,MIC,[10],0.06 µg/mL
same,MIC,[11],0.06 to 0.13 µg/mL
same,MIC,[12],0.06 µg/mL
same,MIC,[13],0.13 µg/mL
same,MIC,[14],0.13 µg/mL
same,MIC,[15],0.13 µg/mL
same,MIC,A. baumannii M2; M2,> 32 µg/mL
same,MIC,[16],0.06 µg/mL
same,MBC,C. difficile strain 4118 [17]; [25],0.5 µg/mL
same,MBC,C. difficile strain 4118 [17]; [26],1 µg/mL
same,MIC50,16 C. difficile isolates,0.06 µg/mL
same,MIC90,16 C. difficile isolates,0.13 µg/mL
same,MIC Range,16 C. difficile isolates; n = 2,0.03 to 0.13 µg/mL
same,MIC,[18],0.06 µg/mL
same,MIC,[19],0.06 µg/mL
same,MIC,[20],0.06 µg/mL
same,log decrease in the number of CFUs,"C. difficile strain 4118 [21]; 4 × MIC, 24 h, stationary-phase CD4118",2.7 log
same,time to eradicate >99.9% of viable cells,"C. difficile strain 4118 [21]; 16× MIC (rafoxanide 2 μg/mL, closantel 4 μg/mL, compound 8 1 μg/mL), stationary-phase CD4118",6 h
same,MIC,[22],16 to 32 µg/mL
same,MIC,[23],1 µg/mL
"CN[C@H](CC(C)C)C(=O)N[C@H]1C(=O)N[C@@H](CC(N)=O)C(=O)N[C@H]2C(=O)N[C@H]3C(=O)N[C@H](C(=O)N[C@H](C(=O)O)c4cc(O)cc(O)c4-c4cc3ccc4O)[C@H](O)c3ccc(c(Cl)c3)Oc3cc2cc(c3O[C@@H]2O[C@H](CO)[C@@H](O)[C@H](O)[C@H]2O[C@H]2C[C@](C)(N)[C@H](O)[C@H](C)O2)Oc2ccc(cc2Cl)[C@H]1O [Vancomycin, vancomycin hydrochloride hydrate]",MIC,[1],32 µg/mL
same,MIC,P. nigrescens ATCC 33563,> 32 µg/mL
same,MIC,"B. subtilis ATCC 6051; B. subtilis ATCC 6051, CAMHB, aerobic, duplicate, read-out: MIC",0.13 µg/mL
same,MIC,S. aureus RN4220,1 µg/mL
same,MIC,"[2]; B. longum subsp. longum 44B, LSM broth, anaerobic, duplicate, read-out: MIC",0.25 µg/mL
same,MIC,"[3]; L. johnsonii 135-1-CHN, CAMHB with 5% laked horse blood, ~48 h, duplicate, read-out: MIC",0.5 µg/mL
same,MIC,P. distasonis ATCC 8503,> 32 µg/mL
same,MIC,"[4]; isolate 20100584, ribotype 014, duplicate, read-out: MIC",0.5 µg/mL
same,MIC C. difficile 4118,[5]; [24],2 µg/mL
same,MIC,"[5]; ATCCBAA1870, BHIS broth, anaerobic, 20–24 h, n = 2, read-out: MIC C. difficile 4118",2 µg/mL
same,MIC,"[6]; isolate 20120016, ribotype 019, duplicate, read-out: MIC",0.5 µg/mL
same,MIC,[7],> 32 µg/mL
same,MIC,"[8]; L. reuteri CF48-3A, CAMHB with 5% laked horse blood, ~48 h, duplicate, read-out: MIC",> 32 µg/mL
same,MIC,"S. epidermidis 1457; S. epidermidis 1457, CAMHB, aerobic, duplicate, read-out: MIC",2 µg/mL
same,MIC,"[9]; isolate 20110740, ribotype 018, duplicate, read-out: MIC",1 µg/mL
same,MIC,"[10]; isolate 20110973, ribotype 106, duplicate, read-out: MIC",2 µg/mL
same,MIC,"[11]; isolate 20110986, ribotype 078, duplicate, read-out: MIC",0.5 to 1 µg/mL
same,MIC,"[12]; isolate 20110960, ribotype 017, duplicate, read-out: MIC",0.5 µg/mL
same,MIC,"[13]; isolate 20100422, ribotype 054, duplicate, read-out: MIC",1 µg/mL
same,MIC,"[14]; isolate 20121190, ribotype 126, duplicate, read-out: MIC",0.5 µg/mL
same,MIC,"[15]; isolate 20110869, ribotype 001_072, duplicate, read-out: MIC",1 µg/mL
same,MIC,"A. baumannii M2; A. baumannii M2, CAMHB, aerobic, duplicate, read-out: MIC",> 32 µg/mL
same,MIC,"[16]; isolate 20110961, ribotype A12, duplicate, read-out: MIC",1 µg/mL
same,MBC,C. difficile strain 4118 [17]; [25],8 µg/mL
same,MBC,C. difficile strain 4118 [17]; [26],> 32 µg/mL
same,log reduction of CD4118 stationary-phase cells,"C. difficile strain 4118 [17]; at 32 μg/mL, 20–24 h",< 3 log
same,MIC50,"16 C. difficile isolates; MIC at which 50% of the 16 isolates are inhibited, n = 2, read-out: MIC50",1 µg/mL
same,MIC90,"16 C. difficile isolates; MIC at which 90% of the 16 isolates are inhibited, n = 2, read-out: MIC90",2 µg/mL
same,MIC Range,16 C. difficile isolates; n = 2,0.5 to 2 µg/mL
same,MIC,"[18]; isolate 20111163, ribotype 024, duplicate, read-out: MIC",1 µg/mL
same,MIC,"[19]; isolate 20110742, ribotype 002, duplicate, read-out: MIC",0.5 to 1 µg/mL
same,MIC,"[20]; isolate 20110566, ribotype 020, duplicate, read-out: MIC",0.5 µg/mL
same,log killing of CD4118 stationary-phase cells,"C. difficile strain 4118 [21]; 16× MIC (metronidazole 4 μg/mL, vancomycin 32 μg/mL), up to 24 h",< 3 log
same,MIC,"[22]; B. breve EX336960VC19, LSM broth, anaerobic, duplicate, read-out: MIC",0.5 µg/mL
same,MIC,"[23]; C. clostridioforme ATCC 25537, BHIS, anaerobic, duplicate, read-out: MIC",0.5 µg/mL
